Twelve molecules from PubChem BioAssay (NCI) can be followed below.

Assay in all cases: NCI tumour cell line growth inhibition, 48 h
The test system of experiment [1] is KM12 colon.
Experiment [2] has as its system SF-539 CNS.
For experiment [3], the system named is SK-OV-3 ovarian.
Experiment [4] concerns SNB-19 CNS.
Experiment [5] concerns MOLT-4 leukemia.
For experiment [6], the system named is UO-31 renal.
Experiment [7] relates to NCI-H460 lung.
Experiment [8] concerns CCRF-CEM leukemia.
Experiment [9] concerns DU-145 prostate.
The test system of experiment [10] is SR leukemia.

Structures are written as SMILES. Several values for one entry are separate records, joined by “and”; a condition that tells them apart may be missing. Identical values can stand only once.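 Step 1: Grow cells in 96-well plates. Step 2: Expose to compound for 48 hours at 5 concentrations. Step 3: Interpolate endpoints linearly; if unreached, use highest concentration. The concentration for 50% growth inhibition is given as GI50. TGI marks complete inhibition of growth.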

As to `NC(=O)C1=CC2C3C=CC2(O)C(=O)OC3O1` (stereo not given), the TGI in experiment [1] amounted to 11.4 µM; in [2] it was 15.7 µM; in [3] it was 57.4 µM; in [4], 60.9 µM; in experiment [5], 8.78 µM; in experiment [6], 13.7 µM. Besides, the TGI in experiment [7] turned out to be 43.2 µM; in experiment [8] it was 9.8 µM; in [9], 14.2 µM; in [10], 5.48 µM.
On to `CC12CC(c3ccccc3O1)C(C(=O)Nc1cccc(F)c1)C(=O)N2` (stereo not given), for which the TGI in [1] is over 100 µM; in experiment [2] it was over 100 µM; in experiment [3], over 100 µM; in experiment [4] it was over 100 µM; in [5], 54.2 µM; in experiment [6], 24.9 µM. Also, the TGI in [7], in experiment [8], in [9] and in experiment [10] was over 100 µM in each case.
Turning to `O=P(O)(O)CN1CCNCCN(CP(=O)(O)O)CCNCC1`, the TGI in experiment [1], in experiment [2], in experiment [3], in experiment [4], in experiment [5] and in experiment [6] was over 100 µM each time. Moreover, the TGI in experiment [7] is 13.1 µM; in experiment [8], over 100 µM; in experiment [9], over 100 µM; in experiment [10], 4.16 µM.
For `CC(C)(C)CC(C)(C)c1ccc(OCCOCC[N+](C)(C)Cc2ccccc2)cc1`, the GI50 in experiment [2] is 1.69 µM and 2.88 µM; in [3], 1.46 µM; in experiment [6] it was 12.4 µM; in experiment [7], 1.58 µM; in experiment [9] it was 1.77 µM; in experiment [10] it was 1.75 µM. Besides, the TGI in experiment [2] was 3.41 µM and 9.48 µM; in experiment [3], 2.94 µM and 25.7 µM; in [4], 11.9 µM; in experiment [5], 6.05 µM; in experiment [6], 45.9 µM and 43 µM; in experiment [7] it was 3.43 µM and 11.7 µM. Further, the TGI in [8] was 6.36 µM; in [9], 3.36 µM.
In the case of `O=C1CC2(CCNCC2)C(=O)N1N1CCOCC1`, the TGI in experiment [1], in [2], in [3], in [4], in [5] and in [6] was over 100 µM in each case. The TGI in experiment [7], in experiment [8], in experiment [9] and in experiment [10] was over 100 µM in each case.
With `O=C(c1ccco1)C1CC(c2ccc3ccccc3c2O)=NN1c1ccc([N+](=O)[O-])cc1[N+](=O)[O-]` (stereo not given), the TGI was 26.2 µM in experiment [1]; over 100 µM in [2]; 96.9 µM in experiment [3]; 11.4 µM in experiment [5]; over 100 µM in [6]; 33.9 µM in experiment [7]. For the same molecule, the TGI was 10.6 µM in [8], over 100 µM in experiment [9] and 23.1 µM in [10].
For `Cn1c(=O)sc2cc(C(=S)N3CCOCC3)ccc21`, the TGI in experiment [1], in experiment [2], in [3], in [4], in [5] and in [6] was over 100 µM each time. For the same molecule, the TGI in experiment [7], in experiment [8], in [9] and in [10] was over 100 µM throughout.
For `CCOC(=O)/C(C#N)=C/N(CC)/N=C/c1ccccc1`, the TGI in [1], in experiment [2], in experiment [3], in [4], in [5] and in [6] was over 100 µM in each case. Besides, the TGI in experiment [7], in experiment [8], in [9] and in experiment [10] was over 100 µM throughout.
Consider `Oc1[nH]c2ccccc2c1/C=c1/cc2c(c(-c3ccc(C(F)(F)F)cc3)n1)=Nc1ccccc1-2`, for which the GI50 in experiment [1] was 2.16 µM; in experiment [2], 16.3 µM; in experiment [3], 13.8 µM; in experiment [4] it was 6.81 µM; in experiment [5], 3.32 µM; in experiment [6], 2.55 µM. The GI50 in experiment [7] was 2.56 µM; in experiment [8] it was 3.06 µM; in experiment [9] it was 8.93 µM; in [10], 1.27 µM. For the same molecule, the TGI in [1] is 12.2 µM; in [2], 44.6 µM; in experiment [3], 56.6 µM; in [4], over 100 µM; in experiment [5] it was 13.2 µM; in [6] it was 20.7 µM. Moreover, the TGI in experiment [7] came out at 10.5 µM; in experiment [8], 16.4 µM; in [9], 34.8 µM; in experiment [10] it was 11.3 µM.
In the case of `CCCCCCOP(=O)(OCCCCCC)OC(C(=O)OC)C(F)(F)F` (stereo not given), the TGI in experiment [1], in [2], in experiment [3], in experiment [4], in experiment [5] and in experiment [6] was over 100 µM in each case. For the same molecule, the TGI in experiment [8], in experiment [9] and in experiment [10] was over 100 µM each time.
Consider `O=CNNC(=O)Nc1ccc(Cl)cc1`, for which the TGI in [1], in [2], in experiment [3], in experiment [4], in experiment [5] and in experiment [6] was over 100 µM throughout. Moreover, the TGI in experiment [8], in [9] and in experiment [10] was over 100 µM throughout.
Take `CNc1ccc(S(=O)Nc2ccccc2)cc1` (stereo not given): the TGI in experiment [1], in experiment [2], in experiment [4], in [5], in experiment [6] and in experiment [7] was over 100 µM throughout. In addition, the TGI in [8], in experiment [9] and in experiment [10] was over 100 µM each time.
